ChEMBL document CHEMBL1147527, “Parallel synthesis of DAPT derivatives and their gamma-secretase-inhibitory activity” (Bioorg Med Chem Lett, 2004)
Active and inactive are the calls of the source. No cut-off for these calls is given here.

What follows are compounds tested against T1, Gamma-secretase subunit PEN-2 (Homo sapiens, UniProt Q9NZ42) (assay: (§1) Inhibitory activity against gamma-secretase relative to DAPT).
T1 sequence (Q9NZ42 whole entry): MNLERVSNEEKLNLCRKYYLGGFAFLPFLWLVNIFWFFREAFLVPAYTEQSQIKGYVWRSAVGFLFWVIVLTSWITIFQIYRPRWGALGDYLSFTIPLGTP
CCCCNC(=O)[C@H](Cc1ccccc1)NC(=O)[C@H](C)NC(=O)Cc1cc(F)cc(F)c1 was tested, and the Relative activity was 0.3. Compound C[C@H](NC(=O)Cc1cc(F)cc(F)c1)C(=O)N[C@@H](Cc1ccccc1)C(=O)NCc1ccccc1 has a Relative activity of 1. C[C@H](NC(=O)Cc1cc(F)cc(F)c1)C(=O)N[C@@H](Cc1ccccc1)C(=O)NC(c1ccccc1)c1ccccc1 showed a Relative activity of 1. C[C@H](NC(=O)Cc1cc(F)cc(F)c1)C(=O)N[C@@H](Cc1ccccc1)C(=O)OC(C)(C)C showed a Relative activity of 1.

Each compound was assayed against T1, Gamma-secretase subunit PEN-2 (assay: Inhibitory activity against gamma-secretase).
For C[C@H](NC(=O)Cc1cc(F)cc(F)c1)C(=O)N[C@@H](Cc1ccccc1)C(=O)OC(C)(C)C, the IC50 was 50 nM.

The compounds below were run against T1, Gamma-secretase subunit PEN-2 (assay: Inhibitory activity against gamma-secretase at concentration of 10 uM; not active).
With C[C@H](NC(=O)Cc1ccccc1O)C(=O)N[C@@H](Cc1ccccc1)C(=O)OC(C)(C)C the Activity was “inactive”. With C[C@H](NC(=O)Cc1cccc(Br)c1)C(=O)N[C@@H](Cc1ccccc1)C(=O)OC(C)(C)C the Activity was “inactive”. For C[C@H](NC(=O)Cc1ccc(O)cc1)C(=O)N[C@@H](Cc1ccccc1)C(=O)OC(C)(C)C, the Activity was “inactive”. With C[C@H](NC(=O)Cc1cccc(O)c1)C(=O)N[C@@H](Cc1ccccc1)C(=O)OC(C)(C)C the Activity was “inactive”. For C[C@H](NC(=O)Cc1ccccc1Br)C(=O)N[C@@H](Cc1ccccc1)C(=O)OC(C)(C)C, the Activity was “inactive”. With C[C@H](NC(=O)Cc1ccc(Br)cc1)C(=O)N[C@@H](Cc1ccccc1)C(=O)OC(C)(C)C the Activity was “inactive”.

What follows are compounds tested against Gamma-secretase (Homo sapiens) (UniProt Q96BI3+Q9NZ42+Q8WW43+P49768+Q92542+P49810) (assay: as §1).
Format: protein-complex assay
With C[C@H](NC(=O)Cc1cc(F)cc(F)c1)C(=O)N[C@@H](Cc1ccccc1)C(=O)NCc1cccc(Br)c1 the Relative activity was 0.1. C[C@H](NC(=O)Cc1cc(F)cc(F)c1)C(=O)N[C@@H](Cc1ccccc1)C(=O)NCc1ccccc1Br gave a Relative activity of 0.3. COC(=O)c1ccc(CNC(=O)[C@H](Cc2ccccc2)NC(=O)[C@H](C)NC(=O)Cc2cc(F)cc(F)c2)cc1 showed a Relative activity of 0.6. In the case of COc1cccc(CNC(=O)[C@H](Cc2ccccc2)NC(=O)[C@H](C)NC(=O)Cc2cc(F)cc(F)c2)c1, the Relative activity is reported as 0.1. Compound C[C@H](NC(=O)Cc1cc(F)cc(F)c1)C(=O)N[C@@H](Cc1ccccc1)C(=O)NCc1ccc(Cl)cc1 has a Relative activity of 0.6. For C[C@H](NC(=O)Cc1cc(F)cc(F)c1)C(=O)N[C@@H](Cc1ccccc1)C(=O)NCc1ccc(Br)cc1, the Relative activity was 0.6. COc1ccccc1CNC(=O)[C@H](Cc1ccccc1)NC(=O)[C@H](C)NC(=O)Cc1cc(F)cc(F)c1 gave a Relative activity of 0.2. COc1ccc(CNC(=O)[C@H](Cc2ccccc2)NC(=O)[C@H](C)NC(=O)Cc2cc(F)cc(F)c2)cc1 was tested, and the Relative activity was 0.4. Work on C[C@H](NC(=O)Cc1cc(F)cc(F)c1)C(=O)N[C@@H](Cc1ccccc1)C(=O)NCc1ccc(F)cc1 yielded a Relative activity of 0.1. With C[C@H](NC(=O)Cc1cc(F)cc(F)c1)C(=O)N[C@@H](Cc1ccccc1)C(=O)NCc1ccccc1Cl the Relative activity was 0.1. With C[C@H](NC(=O)Cc1cc(F)cc(F)c1)C(=O)N[C@@H](Cc1ccccc1)C(=O)NCc1cccc(Cl)c1 the Relative activity was 0.1. Compound C[C@H](NC(=O)Cc1cc(F)cc(F)c1)C(=O)N[C@@H](Cc1ccccc1)C(=O)NCc1ccc(C(=O)c2ccccc2)cc1 has a Relative activity of 30.
